The test system of data set [1] is L1210 cells. The data set can be described thus: Mitotic index of L1210 cells. The class given is cell-based, murine. Particulars: 24-h treatment; 0.2 μM VCR, 1 μM H10 (FIG. 18). Here is the method:
FIG. 18. Effects of the novel TT analog TT2 and DAU on the mitotic index of L1210 cells in vitro. […] Cells (10^6/0.5 ml of RPMI 1640 medium) were incubated in triplicate for 24 h at 37° C. in the presence or absence (control) of 0.256, 0.64, 1.6 and 4 μM TT2, 0.256, 0.64 and 1.6 μM DAU, 0.2 μM VCR or 1 μM H10. After fixation with MeOH:acetic acid (3:1) and staining with 0.1% crystal violet, about 500 cells/slide were scored for mitotic figures and the mitotic index was expressed as the % of mitotic cells in drug-treated cultures divided by the % of mitotic cells in non-treated controls. The mean % of mitotic cells in control at 24 h was 1.86±0.43%.
L1210 cells (about 1×10^6/0.5 ml of FCS-containing RPMI 1640 medium) were incubated in triplicate for 24 h at 37° C. in the presence or absence of TTs or known antimitotic drugs, and collected by centrifugation at 200×g for 10 min to determine their mitotic index. For hypotonic treatment, cells were resuspended in 1 ml of 75 mM KCl for 20 min at 4° C. After fixation in 1 ml of MeOH:acetic acid (3:1), the final cell pellets were collected by centrifugation, resuspended in 75 μl of MeOH:acetic acid (3:1), dispensed onto glass slides, air dried, and stained by spreading 40 μl of 0.1% crystal violet under a coverslip. The % of cells in mitosis was determined microscopically by counting 500 cells/slides. The mitotic index was calculated as the % of mitotic cells in drug-treated cultures divided by the % of mitotic cells in non-treated controls.

The nature of data set [2]: Water solubility (stated in words). It counts as physicochemical.
In data set [3] the test system is L1210 cells. The data set can be described thus: cells. As to conditions: for pIC50: read-out: IC50 (concentration inhibiting by 50% the viability of L1210 leukemic cells), day 4, Table 2 series; for inhibitory effect on L1210 cell viability: 256 nM, 4 days. As to the method:
(§1) FIG. 1. […] For tumor cell growth and viability, L1210 cells were respectively seeded in triplicate at initial densities of 1×10^4 and 1.11×10^4 cells/0.5 ml/well in RPMI 1640 medium containing 7.5% FCS and penicillin (100 IU/ml)-streptomycin (100 μg/ml), and grown for 4 days in the presence or absence (control) of 256 nM concentrations of the indicated compounds in a humidified incubator at 37° C. with 5% CO2 in air. Cell density was monitored using a Coulter counter. […] The ability of viable cells/0.5 ml to bioreduce 0.1 ml of MTS:PMS (20:1) reagent over a 3-h incubation period at 37° C. was assessed by measuring the absorbamce of the water-soluble formazan products at A490 nm.
FIG. 4. […] Cells were seeded in triplicate at initial densities of 100,000 or 11,100 cells/0.5 ml/well and respectively incubated for 2 or 4 days in the presence or absence (control) of the indicated concentrations of drugs, which are plotted on a logarithmic scale. The ability of viable cells/0.5 ml to bioreduce 0.1 ml of MTS:PMS (20:1) reagent over a 3-h incubation period was assessed as described in FIG. 1.
(§2) TT0 was purchased from Aldrich (Milwaukee, Wis.). All solutions of synthetic TTs and tricyclic pyrone H10, vincristine (VCR; a gift from Lilly Researeh Laboratories, Indianapolis, Ind.) and camptothecin (CPT; from Sigma Chemical Co., St Louis, Mo.) were dissolved and diluted in dimethyl sulfoxide (DMSO), whereas daunomycin (DAU) (from Sigma) solutions were prepared in 0.1 M potassium phosphate buffer, pH 7.4, containing 0.9% NaCl. Suspension cultures of murine L1210 lymphocytic leukemia cells (American Type Culture Collection, Rockville, Md.) were maintained in continuous exponential growth by twice-a-week passage in RPMI 1640 medium supplemented with 7.5% fortified bovine calf serum (FCS; HyClone Laboratories, Logan, Utah) and penicillin (100 IU/ml)-streptomycin (100 μg/ml), and incubated in the presence or absence of drugs at 37° C. in a humidified atmosphere containing 5% CO2. […] Control cells incubated in the absence of drugs were similarly treated with vehicle only and, in every experiment, all incubates received the same volume of solvent. For drug removal, incubates were spun at 200×g for 10 min, drug-containing supernatants were discarded, and intact cells were washed thrice with 1 ml of the above RPMI 1640 culture medium and resuspended in 0.5 ml of fresh medium for further incubation.
L1210, HL-60-S, HL60-RV and HL-60-R8 cells suspended in FCS-containing RPMI 1640 medium were grown in 48-well Costar cell culture plates for up to 4 days in the presence or absence of drugs to evaluate drug cytotoxicity.

The test system of data set [4] is L1210 cells. Kind of data set: L1210 tumor cell proliferation assay (Coulter counter). As to conditions: for inhibitory effect on L1210 cell growth: 256 nM, 4 days. As to the method:
as §1
FIG. 3. […] The protocol of the experiment was identical to that of FIG. 1. […] Drug concentrations are plotted on a logarithmic scale.
as §2
For tumor cell growth, L1210 cells were resuspended in fresh FCS-containing RPMI 1640 medium, plated at an initial density of 1×10^4 cells/0.5 ml, and incubated in 48-well Costar cell culture plates (Costar, Cambridge, Mass.). Except when otherwise specified, cells were grown for 4 days in the presence or absence of drugs and their density was monitored every 24 h using a Coulter counter (Coulter Electronics, Luton Beds, UK).

Data set [5] concerns L1210 cells. The data set can be described thus: DNA cleavage (intact chromatin precipitation) in L1210 cells. The class given is cell-based, murine. As to the method: FIG. 19. Comparison of the concentration-dependent effects of novel TT analogs and known DNA-damaging anticancer drugs on DNA cleavage in L1210 cells in vitro. […] After lysing the cells in HLB containing 0.2% Triton X-100, the detergent-soluble DNA fragments present in the supernatants and the intact chromatin DNA remaining in the pellets were separated by centrifugation and their radioactivity estimated by LSC. Results are expressed as [cpm in supernatant/cpm in supernatant+pellet]×100 at 24 h. For untreated controls (5.3±0.6% DNA fragmentation; striped area), the supernatant is 741±79 cpm and the pellet is 13,293±1,446 cpm.
FIG. 20. Comparison of the abilities of novel TT analogs to induce DNA cleavage in L1210 cells in vitro. Cells containing prelabeled DNA were incubated at 37° C. for 24 h in the presence or absence (control) of 7 μM concentrations of the indicated compounds. The protocol of the experiment and the determination of the results were identical to those of FIG. 12.
FIG. 22. Irreversibility of the effects of novel TT analogs and known DNA-damaging anticancer drugs on DNA cleavage in L1210 cells in vitro. Cells containing prelabeled DNA were incubated at 37° C. for various periods of time in the presence or absence (control) of 10 μM TT1 or TT2 and 1.6 μM DAU or CPT. The protocol of the experiment and the determination of the results at 24 h were identical to those of FIG. 19, except that the drugs were either maintained in the medium for the whole 24-h period of incubation (open) or removed after the first 3 (striped) and 8 h (closed). After spinning and washing the appropriate samples to remove the drugs, cells were resuspended in 0.5 ml of fresh medium to complete the 24-h period of incubation in the absence of drugs. Vehicle-treated controls were similarly spun and washed at 3 and 8 h. Bars: means±SD (n=3).
Drug-induced DNA cleavage was determined by intact chromatin precipitation, using L1210, HL-60-S, HL-60-RV and HL-60-R8 cells which were prelabeled with 1 μCi of ^3H-thymidine for 2 h at 37° C., washed with 3×1 ml of ice-cold PBS, collected by centrifugation, and resuspended in fresh FCS-containing RPMI 1640 medium at a density of about 1×10^6 cells/0.5 ml for L1210 and 0.5×10^6 cells/0.5 ml for HL cells. Except when otherwise specified, such cells containing prelabeled DNA were then exposed for 24 h to TTs and drugs known to induce DNA fragmentation. After centrifugation at 200×g for 10 min to discard the drugs and wash the cells, the intact cell pellets were lysed for 30 min in 0.5 ml of HLB, centrifuged at 12,000×g for 30 min to collect the supernatants, and resuspended in 0.5 ml of HLB. After another similar centrifugation, the radioactivities in the pooled supernatants (detergent-soluble low molecular weight DNA fragments) and the pellet (intact chromatin DNA) were determined by LSC: % DNA fragmentation=[cpm in supernatant/cpm in supernatant+pellet]×100. Before being counted in 6 ml of Bio-Safe NA, the intact pelleted chromatin was incubated for 2 h at 60° C. in the presence of 0.6 ml of NCS tissue solubilizer (Amersham).

Data set [6] has as its system Plasmodium falciparum 3D7. The data set can be described thus: Antimalarial activity, inhibition of Plasmodium falciparum 3D7. It counts as cell-based. As to conditions: malaria strain 3D7.
The target in data set [7] is Malaria protease plasmepsin II (Plasmodium falciparum, UniProt P46925). The data set can be described thus: Inhibition of malaria protease plasmepsin II. The class given is biochemical.

Consider 13 compounds from patent publication US6828450B2, “Triptycene analogs” (Kansas State University Research Foundation, priority 2000, dated 2004).

pIC50: −log10 of the molar value. Where “and” joins values, the source holds several entries; their conditions need not be identical. Equal entries are not always repeated.

Malaria protease plasmepsin II, sequence (P46925 125-453): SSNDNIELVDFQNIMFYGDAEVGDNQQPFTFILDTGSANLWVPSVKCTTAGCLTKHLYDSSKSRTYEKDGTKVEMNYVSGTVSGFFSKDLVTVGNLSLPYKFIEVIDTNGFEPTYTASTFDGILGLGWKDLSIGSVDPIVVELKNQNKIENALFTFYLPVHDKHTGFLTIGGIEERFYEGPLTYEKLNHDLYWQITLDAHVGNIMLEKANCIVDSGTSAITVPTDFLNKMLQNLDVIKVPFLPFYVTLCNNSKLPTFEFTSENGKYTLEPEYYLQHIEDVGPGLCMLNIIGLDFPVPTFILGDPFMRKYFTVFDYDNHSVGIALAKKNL

Take `CC[C@]1(O)C[C@H]2CN(CCc3c([nH]c4ccccc34)[C@@](C(=O)OC)(c3cc4c(cc3OC)N(C=O)[C@H]3[C@@](O)(C(=O)OC)[C@H](OC(C)=O)[C@]5(CC)C=CCN6CC[C@]43[C@@H]65)C2)C1` [VCR, vincristine, reference compound]: in data set [1], the “increase in the mitotic index” value came out at 16 fold.

With `O=C(O)CCNC1=C(O)C(=O)C2=C(C1=O)C1C3=C(C(=O)C=CC3=O)C2c2ccccc21` (stereo not drawn) [TT21], the “water solubility” value in data set [2] was “water soluble”.

Consider `COC1=C(Br)C(=O)C2=C(C1=O)C1C3=C(C(=O)C=CC3=O)C2c2ccccc21` (stereo not drawn) [TT13, 2-Bromo-3-methoxy-9,10-dihydro-9,10-[1′,2′]benzenoanthracene-1,4,5,8-tetraone], for which the pIC50 in data set [3] was 6.54.

With `c1ccc2c(c1)C1c3ccccc3C2c2ccccc21` [TT0, triptycene], in data set [4] (in vitro), the “activity against macromolecule synthesis and growth of L1210 cells” value was “inactive”.

Consider `CC(C)(C)OC(=O)CCNC1=C(Br)C(=O)C2=C(C1=O)C1C3=C(C(=O)C=CC3=O)C2c2ccccc21` (stereo not drawn) [Compound 12, 2-Bromo-3-[2-(t-butoxycarbonyl)ethylamino]-9,10-dihydro-9,10-[1,2]benzenoanthracene-1,4,5,8-tetraone], for which the pIC50 in data set [3] was 6.51.

For the compound `O=C(O)CCNC1=C(Br)C(=O)C2=C(C1=O)C1C3=C(C(=O)C=CC3=O)C2c2ccccc21` (stereo not drawn) [Compound 13, N-(2-Bromo-9,10-dihydro-1,4,5,8-tetraoxo-9,10-[1,2]benzenoanthracene-3-yl)-3-aminopropanoic acid], the pIC50 in data set [3] was 5.83.

As to “9,10-Dihydro-9,10-[1′,2′]benzenoanthracene-1,4,5,8-tetraone [TT1]”, the “DNA fragmentation at 24 h after short exposure” value in data set [5] (10 μM, drug removed after 3 and 8 h) is 36-45%. For the same compound, the “DNA cleavage (% DNA fragmentation)” value in data set [5] (10 μM, whole 24 h) was 45% and 40%.

As for `COC(=O)[C@@]12C(=O)C=CC(=O)[C@@H]1C1c3ccccc3C2c2c(OC)ccc(OC)c21` (relative stereo) [TT11, (4aR*,9aR*)-5,8-Dimethoxy-4a-methoxycarbonyl-9,9a,10-trihydro-9,10-[1′,2′]benzenoanthracene-1,4-dione], the “inhibitory effect on L1210 cell growth” value in data set [4] is reported as “marginal”. Besides, the “inhibitory effect on L1210 cell viability” value in data set [3] is on record as “marginal”. Moreover, the “DNA cleavage (% DNA fragmentation)” value in data set [5] (7 μM, 24 h, control 5%) is listed as 7%.

As for `CCOC(=O)CCNC1=C(Br)C(=O)C2=C(C1=O)C1C3=C(C(=O)C=CC3=O)C2c2ccccc21` (stereo not drawn) [TT17, 2-Bromo-3-[2-(ethoxycarbonyl)ethylamino]-9,10-dihydro-9,10-[1′,2′]benzenoanthracene-1,4,5,8-tetraone], the pIC50 in data set [3] is 6.62.

With `COC(=O)C1=CC(=O)[C@H]2C3c4ccccc4C(c4c(OC)ccc(OC)c43)[C@H]2C1=O` (relative stereo) [TT10, (4aS*,9aR*)-5,8-Dimethoxy-2-methoxycarbonyl-4a,9,9a,10-tetrahydro-9,10-[1′,2′]benzenoanthracene-1,4-dione], the “inhibitory effect on L1210 cell growth” value in data set [4] was “weak”. Also, the “inhibitory effect on L1210 cell viability” value in data set [3] is given as “weak”.

Turning to `CNC1=C(Br)C(=O)C2=C(C1=O)C1C3=C(C(=O)C=CC3=O)C2c2ccccc21` (stereo not drawn) [TT14, 2-Bromo-3-(methylamino)-9,10-dihydro-9,10-[1′,2′]benzenoanthracene-1,4,5,8-tetraone], the pIC50 was 6.37 in data set [3], 5.33 in data set [6] and 5.01 in data set [7].

Take `CC[C@@]1(O)C(=O)OCc2c1cc1n(c2=O)Cc2cc3ccccc3nc2-1` [CPT, camptothecin, reference compound]: in data set [5] (1.6 μM, 24 h), the “DNA cleavage (% DNA fragmentation)” value is on record as 57%. Besides, the “DNA fragmentation at 24 h, drug maintained or removed” value in data set [5] (1.6 μM, maintained or removed after 3 or 8 h) is listed as 51-58%. In addition, the Emax in data set [5] (Mus musculus, L1210, concentrations of CPT higher than 1.6 μM, 24 h, read-out: DNA cleavage, plateau of maximal stimulation) lay in the range of 60 to 70%.

In turn, `CC(C)c1nc(CN(C)C(=O)N[C@H](C(=O)N[C@@H](Cc2ccccc2)C[C@H](O)[C@H](Cc2ccccc2)NC(=O)OCc2cncs2)C(C)C)cs1` [ritonavir, reference compound] gave a pIC50 in data set [6] (Plasmodium falciparum) of 5.01.
